According to patent US6548543B1, “Remedies or preventives containing cyclopentenone compounds as the active ingredient” (Takara Shuzo Co., Ltd., priority 1998, dated 2003):

How the values were obtained:
topoisomerase II = target: T1, topoisomerase II (Homo sapiens, UniProt P11388); assay: Topoisomerase II inhibition, pBR322 DNA relaxation; type: biochemical; settings: 37° C., 30 minutes
T1 construct: purchased TopoGEN
Protocol: (1) 2 μl of topoisomerase II (TopoGEN; 2 units/μl), 2 μl of 10-fold concentrated buffer [0.5 M Tris-HCl (pH 8.0), 1.2 M KCl, 0.1 M MgCl2, 2.5 mM adenosine triphosphate, 5 mM dithiothreitol], 2 μl of 0.1% bovine serum albumin (Takara Shuzo), 11 μl of distilled water and 2 μl of distilled water (control) or 2 μl of one of aqueous solutions of dipropionylcyclopentenone, diisobutyrylcyclopentenone, dibenzoylcyclopentenone, dihexanoylcyclopentenone, di-2-hexenoylcyclopentenone, dimethoxyacetylcyclopentenone, dimethylfumarylcyclopentenone or dimethylmaleylcyclopentenone at varying concentrations were mixed together. 1 μl of 0.25 μg/μl pBR322 DNA (Takara Shuzo) was added thereto. The resulting mixture was reacted at 37° C. After reacting for 30 minutes, 2 μl of an aqueous solution containing 1% sodium dodecyl sulfate, 50% glycerol and 0.02% Bromophenol Blue was added thereto to stop the reaction.
20 μl of the reaction mixture was applied to 1% agarose gel prepared using agarose L03 (Takara Shuzo) and TAE buffer [40 mM Tris, 5 mM sodium acetate, 1 mm ethylenediaminetetraacetic acid disodium salt (EDTA); adjusted to pH 7.8 using acetic acid] and electrophoresed in TAE buffer. After electrophoresis, the gel was soaked in a 1 μg/ml aqueous ethidium bromide solution. The gel was exposed to ultraviolet rays to visualize the electophoretic pattern of DNA.

[1] = system: Candida albicans TIMM0136; assay: Antifungal activity, growth inhibition; type: cell-based; settings: 10 μl of solution at 100 or 500 μg/ml added to 100 μl culture; 30° C., 48 hours
Protocol: Dipropionylcyclopentenone, diisobutyrylcyclopentenone and di-2-hexenoylcyclopentenone were used to examine their antifungal activities against Candida albicans TIMM0136.
Candida albicans cells were cultured overnight in YNBG medium containing 0.67% Yeast Nitrogen Base (Difco) and 1.0% glucose (seed culture). The culture was then diluted with fresh Yeast Nitrogen Base medium to a concentration of 1×10^6 cells/ml. 100 μl of the dilution was dispensed into each well of a 96-well microtiter plate.
10 μl each of solutions of dipropionylcyclopentenone, diisobutyrylcyclopentenone or di-2-hexenoylcyclopentenone in 70% ethanol at a concentration of 100 μg/ml or 500 μg/ml, or 10 μl of 70% ethanol solution was added to the well. The plate was incubated without shaking at 30° C. for 48 hours (main culture).

T1 sequence (P11388 whole entry): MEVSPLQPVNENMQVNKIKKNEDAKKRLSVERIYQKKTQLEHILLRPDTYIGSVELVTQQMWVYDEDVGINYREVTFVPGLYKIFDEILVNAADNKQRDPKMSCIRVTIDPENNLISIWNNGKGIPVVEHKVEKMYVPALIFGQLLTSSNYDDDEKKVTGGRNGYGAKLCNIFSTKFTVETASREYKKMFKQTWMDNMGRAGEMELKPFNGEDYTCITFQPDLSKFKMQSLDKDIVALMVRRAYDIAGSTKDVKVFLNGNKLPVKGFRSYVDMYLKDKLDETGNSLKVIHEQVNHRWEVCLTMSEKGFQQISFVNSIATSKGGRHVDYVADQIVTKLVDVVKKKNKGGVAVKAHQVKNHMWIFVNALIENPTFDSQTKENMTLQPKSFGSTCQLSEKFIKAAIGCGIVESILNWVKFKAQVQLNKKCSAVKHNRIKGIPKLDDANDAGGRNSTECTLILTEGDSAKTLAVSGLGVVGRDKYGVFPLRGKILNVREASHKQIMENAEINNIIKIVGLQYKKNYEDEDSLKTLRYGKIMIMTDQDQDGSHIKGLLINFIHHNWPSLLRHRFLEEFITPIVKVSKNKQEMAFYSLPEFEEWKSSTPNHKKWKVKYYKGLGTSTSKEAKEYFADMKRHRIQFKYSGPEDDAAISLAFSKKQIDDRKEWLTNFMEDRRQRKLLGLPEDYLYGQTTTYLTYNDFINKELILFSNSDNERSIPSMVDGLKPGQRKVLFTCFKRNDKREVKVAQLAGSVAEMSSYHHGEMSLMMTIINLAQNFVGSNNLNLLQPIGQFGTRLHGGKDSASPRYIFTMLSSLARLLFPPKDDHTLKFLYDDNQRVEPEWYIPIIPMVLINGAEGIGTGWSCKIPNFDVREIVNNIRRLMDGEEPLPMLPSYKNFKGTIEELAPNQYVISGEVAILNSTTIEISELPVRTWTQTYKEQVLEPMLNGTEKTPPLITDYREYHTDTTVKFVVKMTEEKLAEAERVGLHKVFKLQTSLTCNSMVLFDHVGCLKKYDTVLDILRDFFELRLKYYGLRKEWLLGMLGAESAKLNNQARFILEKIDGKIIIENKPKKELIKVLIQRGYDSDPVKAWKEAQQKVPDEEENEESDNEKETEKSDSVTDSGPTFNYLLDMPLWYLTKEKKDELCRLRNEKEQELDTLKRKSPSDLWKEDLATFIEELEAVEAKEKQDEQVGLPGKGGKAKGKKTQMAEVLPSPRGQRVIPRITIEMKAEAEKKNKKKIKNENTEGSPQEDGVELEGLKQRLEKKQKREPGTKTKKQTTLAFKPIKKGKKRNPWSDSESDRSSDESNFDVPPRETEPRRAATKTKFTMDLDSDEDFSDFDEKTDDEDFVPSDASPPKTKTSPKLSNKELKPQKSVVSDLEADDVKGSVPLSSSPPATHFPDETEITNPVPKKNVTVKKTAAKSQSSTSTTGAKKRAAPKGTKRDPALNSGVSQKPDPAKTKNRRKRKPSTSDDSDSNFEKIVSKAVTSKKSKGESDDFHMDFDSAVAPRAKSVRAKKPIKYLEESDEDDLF

## CCC(=O)OC1C=CC(=O)C1OC(=O)CC (centres unmarked)
Topoisomerase II
  Concentration at which change of DNA from superhelical type to relaxed type was partially or completely inhibited: ≥ 0.1 µM
[1]
  Minimum growth inhibitory concentration: 500 µg/mL
